Source: patent publication US11364231B2, “Methods of treating radiation induced gastrointestinal syndrome (RIGS) and related disease states using YEL002/BCN057” (priority 2017, dated 2022)
“Also recorded” adds a separate entry of the source.

Legend:
[1] = tested on: irradiated intestinal epithelium (jejunum); test: Jejunum histology and crypt proliferation after AIR; assay type: in vivo
Text: Since radiation doses>8 Gy induces cell cycle arrest and apoptosis of the crypt epithelial cells within day 1 post-radiation, resulting in a decrease in regenerating crypt colonies by day 3.5 and ultimately villi denudation by day 7 post-radiation exposure, animals were sacrificed when moribund or at 3.5 days after AIR for time course experiments and intestines were collected for histology. The intestine of each animal was dissected, washed in PBS to remove intestinal contents and the jejunum was fixed in 10% neutral-buffered formalin before paraffin embedding. Tissue was routinely processed and cut into 5 μm sections for haematoxylin and eosin and immunohistochemical staining. All haemotoxylin and eosin (HE) (Fisher Scientific, Pittsburgh, Pa.) staining was performed at the Pathology Core Facility in the KUMC Cancer Center.
To visualize villous cell proliferation mid-jejunum was collected for paraffin embedding and Ki67 immunohistochemistry. Tissue sections were routinely deparaffinized and rehydrated through graded alcohols and incubated overnight at room temperature with a monoclonal anti Ki67 antibody. Nuclear staining was visualized using streptavidin-peroxidase and diaminobenzidine (DAB) and samples were lightly counterstained with haematoxylin. […] The proliferation rate was calculated as the percentage of KI67-positive cells over the total number of cells in each crypt. A total of 60 crypts were examined per animal.
Crypt depth was independently and objectively analyzed and quantitated in a blind manner from coded digital photographs of crypts from HE-stained slides using ImageJ 1.37 software to measure the height in pixels from the bottom of the crypt to the crypt villus junction. Villi length was determined by measuring the length from the crypt villus junction to villous tip. This measurement in pixels was converted to length (in μm) by dividing with the following a conversion factor (1.46 pixels μm-1).

[2] = tested on: intestinal epithelial integrity; test: FITC-dextran permeability assay; assay type: in vivo, mice
Protocol: Since dextran is unable to cross the GI epithelia unless it is compromised, dextran in the blood is a good indicator of epithelial damage. Blood FITC-dextran levels were measured at 4 h after gavage.
At day 5 post mice exposed to ABI and/or treated with BCN057 were gavaged with 0.6 mg g-1 body weight of a FITC-dextran solution ([…] size, Sigma). In all, four hrs. after gavage mice were killed and serum was obtained with cardiac puncture. Samples were measured in a 96-well plate using a Flexstation ii 384 multiwell fluorometer (Molecular Devices). A standard curve was constructed using mouse serum having increasing amounts of FITC-dextran to determine the serum levels of FITC-dextran in different treatment groups.

MC38 colon tumor = MC38 colon tumor in the flank with AIR; assay type: in vivo, mice
Text: FIG. 18. […] I) Schematic diagram of BCN057 treatment in C57B16 mice having MC38 colon tumor in the flank. Mice were exposed to AIR (15Gy) and then treated with BCN057 at 24 hrs post exposure. Ii) Representative image of C57B16 mice having MC38 colon tumor in the flank. Note reduction in tumor size in irradiated or un-irradiated tumor treated with BCN057 at day 20 post AIR. Mice exposed to AIR without BCN057 treatment are not part of this image as they died within day 15 post AIR.
Subcutaneous tumors were developed by injecting MC38 colon cancer cell in the flank. Mice with palpable, subcutaneous tumor were treated with AIR (16Gy) followed by eight doses of BCN057. AIR reduced the tumor growth but invariably produced 100% mortality of animals with a median survival time of 14+2 days.
Mice were injected subcutaneously with 1×105 MC38 (colon carcinoma cell line) cells on the flank, respectively. About 10 days later, the tumor became palpable (3-5 mm in diameter), whereupon abdominal irradiation 16 Gy was delivered. Mice were divided into 4 groups (n=10/group) receiving no treatment, AIR, BCN057 and BCN057 plus AIR. Animals received BCN057 eight times starting 24 hrs after AIR. Tumor measurements were performed thrice weekly using Vernier calipers along with simultaneous physical assessment of signs of systemic toxicity (malaise and diarrhea).

NCI 60 cancer cell lines = test: NCI 60 cancer cell line screen; assay type: cell-based; conditions: BCN057 10 uM, 48 hours, sulforhodamine B assay
Protocol: BCN057 was first examined in the National Cancer Institute (NCI) 60 cancer cell line platform. Several of these cell lines are known to be positive for dysregulation of the Wnt/b-catenin signaling pathway. […] Next we examined the effect of BCN057 in human colonic tumor derived organoids exposed to irradiation.
100 μL of each cell preparation was tested in accordance with its particular type and density, ranging from 5000-40,000 cells per well in a 96-well microtiter plate, corresponding to their own growth rate. BCN057 was evaluated 10 uM and incubation for 48 hours in a 5% CO2 atmosphere with 100% humidity. Proliferation was assayed using the sulforhodamine B assay with a plate reader to read the optical densities.

[3] = tested on: Lgr5+ve ISC in Lgr5/GFP-IRES-Cre-ERT2 knock-in mice; test: Lgr5+ve ISC survival in vivo after AIR; conditions: 15 Gy AIR then BCN057; beyond 48 hrs post AIR, p<0.001
Text: To study this effect in vivo, the role of BCN057 in ISC survival was examined by exposing Lgr5/GFP-IRES-Cre-ERT2 knock-in mice to 15 Gy to AIR and then treated with BCN057. Lgr5+ve ISC had disappeared from crypt base within 48 hrs post AIR in untreated mice.

WNT target genes = test: qPCR of WNT target genes in irradiated human colonic organoids; assay type: cell-based; conditions: epithelial cells from irradiated human colonic organoids treated with BCN057
Protocol: (B-C, Data was the average of 3 human subjects).
To examine the effect of BCN057 on human intestinal, epithelial tissue surgical specimen collected from normal colon at least 10 cm apart from malignant site was used to develop ex vivo crypt organoid. At a dose level of 8 Gy all the budding crypts have been disappeared in the organoids. […] The effect of BCN057 on mRNA level of β-catenin target genes in organoids was also evaluated.

[4] = tested on: HEK293 cells having TCF/LEF luciferase reporter construct; test: TCF/LEF (Topflash) reporter assay; assay type: cell-based, human; conditions: graded doses of BCN057 vs vehicle control, 24 hr
Protocol: To determine the canonical WNT activity of BCN057 HEK293 cells (Signosis, Santa Clara, Calif.) having TCF/LEF luciferase reporter construct were treated with BCN057 or vehicle control or PBS. LiCl (10 mM) treatment was used as positive control for luciferase activity. Luciferase activity was determined 24 hr after using Dual-Luciferase Reporter Assay System (Promega) as per manufacturer's protocol. HEK293 cells having FOPFLASH construct (mutated TCF/LEF-binding site) were used as negative control. HEK293 (human embryonic kidney) cell line was routinely characterized in the lab based on morphology and gene-expression patterns. Cells were confirmed to be free of mycoplasma contamination.

[5] = jejunum, BCN057 at 24 hrs after AIR vs irradiated control

COc1ccc2cc(-c3nc4ccc(C)cn4c3NCc3ccco3)c(=O)[nH]c2c1 [BCN057, 3-(3((furan-2-ylmethyl)ammo)-6-methylimidazo[1,2-a]pyridine-2-yl)-6-methoxyquinolin-2(1H)-one]
number of crypt in jejunum ([1]; BCN057 at 24 hrs after AIR vs irradiated control): increase in number of crypts | crypt villus structure / epithelium (HE staining) ([1]; jejunum, 3.5 day after AIR, BCN057 at 24 hrs post AIR): normal crypt villus structure; also recorded: restitution of epithelium | % of Ki67 positive crypt cells [1, 5]: increase in crypt cell proliferation | Crypt Depth villi length [1, 5]: preserved villous length; also recorded: increase | serum FITC-dextran level ([2]; irradiated (AIR) mice treated with BCN057 vs irradiated untreated control, 4 h after gavage): significantly reduced; also recorded: lower serum dextran level | serum dextran level ([2]; unirradiated BCN057 treated mice vs irradiated control): lower serum dextran level | mice surviving beyond 30 days (MC38 colon tumor; AIR (16Gy) followed by eight doses of BCN057, AIR alone 100% mortality, n=10): 75% | tumor growth (MC38 colon tumor; AIR + BCN057 vs un-irradiated untreated control): significant tumor growth retardation; also recorded: significant reduction of tumor growth | tumor growth (MC38 colon tumor; BCN057 in un-irradiated mice vs un-irradiated untreated control): reduces the tumor growth | survival time (MC38 colon tumor; BCN057 post AIR vs AIR alone): significant improvement in survival time | proliferative response (NCI 60 cancer cell lines): None of these cells showed any proliferative response | Lgr5+ve ISC in jejunal crypts [3]: significant preservation; also recorded: presence of GFP+ve Lgr5+ve ISCs | mRNA level of WNT / β-catenin target genes (WNT target genes): several fold increase; also recorded: increases | Luciferase activity (WNT activity) [4]: significant increase; also recorded: higher Luciferase activity; also recorded: strong WNT activity
